Legend:
[1] = system: infiltration of neutrophil; assay: zymosan peritonitis model; type: in vivo, mouse C57BL/6J; conditions: for suppressing effect for other cell group (macrophage etc.): 10 ng (FIG. 4C); for neutrophil suppressing activity compared with dexamethasone: 10 ng compound versus 10 μg dexamethasone (FIG. 4A, 4C); for dose dependence of activity in peritonitis model: Example 4, 1 ng or 10 ng/mouse (FIG. 4A(b), 4D); for activities of suppressing infiltration of neutrophil at an inflammation initial stage: low dose of 10 ng (FIG. 4C)
Procedure: For an inflammation model, zymosan peritonitis elicited by intraperitoneally administering zymosan being a cell wall component of yeast was used. Since an exudate in an abdominal cavity can be recovered, the present model is a model suitable for analyzing cytokines and eicosanoids.
Zymosan A (Wako Pure Chemical Industries, Ltd.) was suspended in a physiological saline to 1 mg/mL, and the suspension was warmed at 37° C. for 30 minutes. Thereafter, this zymosan A solution was vortexed, and returned to room temperature. The compound synthesized in the previous Example, 17,18-diHEPE was taken into a 1.5 mL tube, and a solvent was vaporized with nitrogen to complete dryness and, thereafter, a physiological saline was added to dissolve it. Then, 100 μL of this compound solution was injected (1 ng or 10 ng/mouse) through a tail vein of C57BL/6J mouse (7 weeks old, mail: CLEA Japan, Inc.). As a control, a group in which only a physiological saline was injected, and a group in which dexamethasone (10 μg/mouse) being an anti-inflammatory steroid was injected, were used. After about 2 minutes, 1 mL of a zymosan A solution was intraperitoneally administered. After 2 hours, cells exuded into an abdominal cavity were recovered into a tube with a PBS, and the cell number was counted. Thereafter, this tube was centrifuged at 1200 rpm and 4° C. for 5 minutes to remove the supernatant, a precipitate (pellet) was suspended in PBS, and a population was analyzed by three-color staining of FACS.
Abdominal cavity cells were adjusted to 2.5×10^6 cells/mL, and 200 μL was placed into a 5 mL round-bottom tube (BDFalcon) (5×10^5 cells/tube). To this tube was added an anti-mouse CD16/CD32 antibody (0.5 mg/mL; BDBiosciences) at 1 μL per tube, and this was incubated at room temperature for 10 minutes. To this tube was added a staining antibody mix (prepared by diluting 1.0 μL of FITC bound anti-mouse F4/80 antibody (0.5 mg/mL; eBiosciences), 0.5 μL of PE bound anti-mouse Ly-6G & Ly-6C antibody (0.2 mg/mL; eBiosciences) and 0.5 μL of PerCP-Cy5.5 bound anti-mouse CD11b antibody (0.2 mg/mL; eBiosciences) in 50 μL of PBS, per sample) at 50 μL/tube, and this was incubated at room temperature for 15 minutes under light shielding. Measurement was performed by FACS Calibur (BDBiosciences). […]

[2] = system: neutrophil which have infiltrated into lung; assay: acute lung damage model (intrabronchial hydrochloric acid); type: in vivo, mouse C57BL/6J; conditions: 10 ng via tail vein; BAL 12 hours after hydrochloric acid (FIG. 4E)
Procedure: One hundred μL of a compound 17,18-diHEPE dissolved in a physiological saline was injected through a tail vein of a C57BL/6J mouse (7 weeks old, male; CLEA Japan, Inc.). After 15 minutes, this mouse was anesthetized by intraperitoneally administering a mixed solution of ketamine (Daiichi Sankyo Propharma) and xylazine (Bayer Medical Ltd.), a trachea was exposed, and 25 μL of hydrochloric acid (pH 1.0, 0.1 N; SIGMA) was administered into a left bronchium. As a control, a group in which only a physiological saline was injected and, after anesthesia, hydrochloric acid was administered into a left bronchium (saline/HCl), and a non-treated group (intact) were used. After 12 hours, this mouse was slaughtered, and bronchial alveolus washing (BAL) was performed with 0.7 mL of PBS two times. The cell number in the BAL solution was counted and a population of cells was quantitated by simple Giemsa staining using a simple Giemsa staining solution Diffquick (Sysmex Corporation).

Compound	suppressing effect for other cell group (macrophage etc.) [1]	neutrophil suppressing activity compared with dexamethasone [1]	dose dependence of activity in peritonitis model [1]	activities of suppressing infiltration of neutrophil at an inflammation initial stage [1]	suppression of infiltration of neutrophil ([1]; 10 ng/mouse via tail vein, abdominal cavity cells recovered 2 hours after zymosan, FACS (FIG. 4A))	IC40 (dose versus decrease in the neutrophil number) ([1]; calculated from graph FIG. 4F)	neutrophil-specific infiltration suppressing activity [2]
CCC(O)C(O)/C=C/C=C/C=C\C/C=C\C/C=C\CCCC(=O)O (single isomer, unassigned) [peak 5, 17,18-diHEPE]	not recognized	equivalent to 10 μg of dexamethasone	dose-dependent	recognized	–	–	–
CCC(O)C(O)/C=C/C=C/C=C\C/C=C\C/C=C\CCCC(=O)O (centres unmarked) [17,18-diHEPE, 17,18-dihydroxyeicosapentaenoic acid]	–	–	–	–	about 40%	approximately 8 ng	–
CCC(O)C(O)/C=C/C=C/C=C\C/C=C\C/C=C\CCCC(=O)O (single isomer, unassigned) [peak 6, 17,18-diHEPE]	not recognized	equivalent to 10 μg of dexamethasone	dose-dependent	recognized	–	–	recognized

Source: patent US8853437B2, “Anti-inflammatory compounds” (The University of Tokyo, priority 2009, dated 2014)
